Assay results published in ChEMBL document CHEMBL1201862, “PubChem BioAssay data set” (2004).
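Interpolation was linear, between the two tested concentrations surrounding the appropriate level; five concentrations were tested over 48 hours in 96-well plates. Here, GI50 denotes the concentration required for 50% inhibition of growth.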 Active and inactive are the calls of the source. Cut-off read from the data, not from the text of the source: active = GI50 up to about 1.1 µM and inactive = higher.

How the values were obtained:
Assay in all cases: NCI anticancer screen, dose series, 48 h
[1] = tested on: MDA-MB-435
[2] = tested on: SF-539
[3] = tested on: TK-10
[4] = tested on: 786-0
[5] = tested on: HOP-92
[6] = tested on: SW-620
[7] = tested on: RXF 393
[8] = tested on: UACC-257
[9] = tested on: PC-3
[10] = tested on: RPMI-8226
[11] = tested on: SK-OV-3
[12] = tested on: MCF7
[13] = tested on: COLO 205
[14] = tested on: ACHN
[15] = tested on: M14
[16] = tested on: SK-MEL-28
[17] = tested on: OVCAR-4
[18] = tested on: SN12C
[19] = tested on: HCT-116
[20] = tested on: UO-31
[21] = tested on: NCI/ADR-RES
[22] = tested on: SF-268
[23] = tested on: MOLT-4
[24] = tested on: HCC 2998
[25] = tested on: MDA-MB-231
[26] = tested on: NCI-H23
[27] = tested on: UACC-62
[28] = tested on: OVCAR-5
[29] = tested on: SNB-75
[30] = tested on: IGROV-1
[31] = tested on: NCI-H522
[32] = tested on: CCRF-CEM
[33] = tested on: MDA-N
[34] = tested on: SNB-19
[35] = tested on: Hs-578T
[36] = tested on: K562
[37] = tested on: U-251
[38] = tested on: OVCAR-8
[39] = tested on: SR
[40] = tested on: LOX IMVI
[41] = tested on: A549
[42] = tested on: SF-295
[43] = tested on: KM12
[44] = tested on: OVCAR-3
[45] = tested on: HCT-15
[46] = tested on: BT-549
[47] = tested on: EKVX
[48] = tested on: DU-145
[49] = tested on: HOP-62
[50] = tested on: SK-MEL-2
[51] = tested on: SK-MEL-5
[52] = tested on: NCI-H226
[53] = tested on: HT-29
[54] = tested on: CAKI-1
[55] = tested on: A498
[56] = tested on: T47D
[57] = tested on: Malme-3M
[58] = tested on: NCI-H460
[59] = tested on: HL-60

In the case of `CCc1n[nH]c(=O)n1/N=C/c1c(O)ccc2ccccc12`, the GI50 [1] is reported as > 100 µM (inactive), the GI50 [2] is reported as > 100 µM (inactive) and the GI50 [3] is reported as > 100 µM (inactive). The GI50 [4] was > 100 µM (inactive), the GI50 [5] was > 100 µM (inactive) and the GI50 [6] was > 100 µM (inactive). The GI50 [7] was > 100 µM (inactive), the GI50 [8] was > 100 µM (inactive) and the GI50 [9] was > 100 µM (inactive). For the same compound, the GI50 [10] was > 100 µM (inactive), the GI50 [11] was > 100 µM (inactive) and the GI50 [12] was > 100 µM (inactive). The GI50 [13] was > 100 µM (inactive), the GI50 [14] was > 100 µM (inactive) and the GI50 [15] was > 100 µM (inactive). The GI50 [16] was > 100 µM (inactive), the GI50 [17] was > 100 µM (inactive) and the GI50 [18] was > 100 µM (inactive). For the same compound, the GI50 [19] was > 100 µM (inactive), the GI50 [20] was > 100 µM (inactive) and the GI50 [21] was > 100 µM (inactive). The GI50 [22] was > 100 µM (inactive), the GI50 [23] was > 100 µM (inactive) and the GI50 [24] was > 100 µM (inactive). For the same compound, the GI50 [25] was > 100 µM (inactive), the GI50 [26] was > 100 µM (inactive) and the GI50 [27] was > 100 µM (inactive). The GI50 [28] was > 100 µM (inactive), the GI50 [29] was > 100 µM (inactive) and the GI50 [30] was > 100 µM (inactive). For the same compound, the GI50 [31] was > 100 µM (inactive), the GI50 [32] was > 100 µM (inactive) and the GI50 [33] was > 100 µM (inactive). The GI50 [34] was > 100 µM (inactive), the GI50 [35] was 2.06 µM (inactive) and the GI50 [36] was > 100 µM (inactive). The GI50 [37] was > 100 µM (inactive), the GI50 [38] was > 100 µM (inactive) and the GI50 [39] was > 100 µM (inactive). For the same compound, the GI50 [40] was > 100 µM (inactive), the GI50 [41] was > 100 µM (inactive) and the GI50 [42] was > 100 µM (inactive). For the same compound, the GI50 [43] was > 100 µM (inactive), the GI50 [44] was > 100 µM (inactive) and the GI50 [45] was greater than 100 µM. The GI50 [46] was > 100 µM (inactive), the GI50 [47] was > 100 µM (inactive) and the GI50 [48] was > 100 µM (inactive). The GI50 [49] was > 100 µM (inactive), the GI50 [50] was > 100 µM (inactive) and the GI50 [51] was > 100 µM (inactive).

In the case of `CC(C)C1=CC23CCC4C(C)(C(=O)O)CCCC4(C)C2CC1C(C(=O)O)C3C(=O)O` (centres undefined), the GI50 [1] is reported as > 100 µM (inactive), the GI50 [3] is reported as > 100 µM (inactive) and the GI50 [52] is reported as > 100 µM (inactive). The GI50 [4] was > 100 µM (inactive), the GI50 [53] was > 100 µM (inactive) and the GI50 [54] was > 100 µM (inactive). For the same compound, the GI50 [5] was > 100 µM (inactive), the GI50 [6] was > 100 µM (inactive) and the GI50 [7] was > 100 µM (inactive). For the same compound, the GI50 [55] was > 100 µM (inactive), the GI50 [9] was > 100 µM (inactive) and the GI50 [14] was > 100 µM (inactive). For the same compound, the GI50 [15] was > 100 µM (inactive), the GI50 [16] was > 100 µM (inactive) and the GI50 [17] was > 100 µM (inactive). The GI50 [18] was > 100 µM (inactive), the GI50 [19] was > 100 µM (inactive) and the GI50 [20] was > 100 µM (inactive). The GI50 [21] was > 100 µM (inactive), the GI50 [22] was > 100 µM (inactive) and the GI50 [23] was > 100 µM (inactive). The GI50 [25] was > 100 µM (inactive), the GI50 [56] was > 100 µM (inactive) and the GI50 [57] was > 100 µM (inactive). For the same compound, the GI50 [26] was > 100 µM (inactive), the GI50 [27] was > 100 µM (inactive) and the GI50 [28] was > 100 µM (inactive). The GI50 [29] was > 100 µM (inactive), the GI50 [30] was > 100 µM (inactive) and the GI50 [31] was > 100 µM (inactive). For the same compound, the GI50 [32] was > 100 µM (inactive), the GI50 [34] was > 100 µM (inactive) and the GI50 [35] was > 100 µM (inactive). For the same compound, the GI50 [36] was > 100 µM (inactive), the GI50 [37] was > 100 µM (inactive) and the GI50 [38] was > 100 µM (inactive). The GI50 [39] was > 100 µM (inactive), the GI50 [40] was > 100 µM (inactive) and the GI50 [41] was > 100 µM (inactive). For the same compound, the GI50 [42] was > 100 µM (inactive), the GI50 [43] was > 100 µM (inactive) and the GI50 [44] was > 100 µM (inactive). The GI50 [45] was greater than 100 µM, the GI50 [46] was > 100 µM (inactive) and the GI50 [47] was > 100 µM (inactive). For the same compound, the GI50 [48] was > 100 µM (inactive), the GI50 [58] was > 100 µM (inactive) and the GI50 [49] was > 100 µM (inactive). For the same compound, the GI50 [50] was > 100 µM (inactive) and the GI50 [51] was > 100 µM (inactive).

In the case of `Cn1c2ccccc2c2c(-c3ccccc3)[n+]3ccccc3nc21`, the GI50 [1] is reported as 20.6 µM (inactive), the GI50 [2] is reported as 34.8 µM (inactive) and the GI50 [3] is reported as 31.9 µM (inactive). The GI50 [4] was 23.2 µM (inactive), the GI50 [53] was 53.7 µM (inactive) and the GI50 [54] was > 100 µM (inactive). For the same compound, the GI50 [5] was 14.6 µM (inactive), the GI50 [6] was 23.2 µM (inactive) and the GI50 [8] was 18.4 µM (inactive). The GI50 [55] was > 100 µM (inactive), the GI50 [9] was 26.2 µM (inactive) and the GI50 [10] was 17.8 µM (inactive). The GI50 [11] was > 100 µM (inactive), the GI50 [13] was 43.1 µM (inactive) and the GI50 [14] was 98.6 µM (inactive). For the same compound, the GI50 [15] was 18.1 µM (inactive), the GI50 [59] was 24.8 µM (inactive) and the GI50 [16] was 20.5 µM (inactive). For the same compound, the GI50 [17] was 61.7 µM (inactive), the GI50 [18] was 25.8 µM (inactive) and the GI50 [20] was > 100 µM (inactive). For the same compound, the GI50 [21] was > 100 µM (inactive), the GI50 [22] was 18.5 µM (inactive) and the GI50 [23] was 42.2 µM (inactive). For the same compound, the GI50 [25] was 32.9 µM (inactive), the GI50 [56] was 51.5 µM (inactive) and the GI50 [57] was 24.3 µM (inactive). For the same compound, the GI50 [26] was 23.2 µM (inactive), the GI50 [27] was 21.2 µM (inactive) and the GI50 [28] was 50.9 µM (inactive). The GI50 [29] was 19.5 µM (inactive), the GI50 [30] was 26.7 µM (inactive) and the GI50 [31] was 25.4 µM (inactive). The GI50 [32] was 30.5 µM (inactive), the GI50 [34] was 65.8 µM (inactive) and the GI50 [35] was 34.8 µM (inactive). For the same compound, the GI50 [36] was 34 µM (inactive), the GI50 [37] was 24.8 µM (inactive) and the GI50 [38] was 36.3 µM (inactive). For the same compound, the GI50 [39] was 23.9 µM (inactive), the GI50 [40] was 18.5 µM (inactive) and the GI50 [41] was 52.7 µM (inactive). For the same compound, the GI50 [42] was 46.3 µM (inactive), the GI50 [43] was 17.1 µM (inactive) and the GI50 [44] was 23.3 µM (inactive). The GI50 [45] was greater than 100 µM, the GI50 [46] was 23 µM (inactive) and the GI50 [47] was 36.1 µM (inactive). For the same compound, the GI50 [48] was 53.3 µM (inactive), the GI50 [58] was 21.9 µM (inactive) and the GI50 [49] was 22.5 µM (inactive). For the same compound, the GI50 [50] was 20.2 µM (inactive) and the GI50 [51] was 16.8 µM (inactive).
